Our source for the IC50 and EC30 values is patent publication US20240307409A1, “ARGININE METHYLTRANSFERASE INHIBITOR AND USE THEREOF” (Cytosinlab Therapeutics Co., Ltd., priority 2021, published 2024).

Assay [1] has as its target PRMT1 (Homo sapiens, UniProt Q99873). In words: PRMT1 enzyme activity test. The assay is classed as biochemical. Particulars: 0.5 nM PRMT1, 3H-SAM, peptide. An outline of the steps: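 Radiometric methylation assay: 0.5 nM PRMT1 preincubated 15 min at room temperature with compound (10-point 3-fold series, 1% DMSO) in pH 8.0 Tris buffer with Tween-20 and DTT. 0.25 uM ³H-SAM and 0.1 uM biotinylated peptide then reacted 120 min. Product captured on streptavidin FlashPlate and counted; IC50 from four-parameter fit of % inhibition.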

The subject of assay [2] is Toledo cells. Kind of assay: Toledo cell proliferation inhibition assay. Format: cell-based. The settings on record: Homo sapiens, Toledo, 144 h; six-day assay, CellTiter-Glo. An outline of the steps:
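Toledo cells seeded at 2000 cells/well in RPMI 1640 + 10% FBS and incubated with compound for six days at 37° C, 5% CO2. Viability was then read by CellTiter-Glo luminescence after 30 min orbital mixing.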
In general terms: Cellular ATP, detected with luciferase, serves as a proxy for viable cell number.

In assay [3] the test system is MMA in RKO cells. Kind of assay: RKO In Cell Western assay (MMA primary antibody). The assay is classed as cell-based. The settings on record: Homo sapiens, 72 hours, read-out: RKO ICW_EC30. How it is done: RKO was seeded at a concentration of 20,000 cells/ml into a polylysine-coated 96-well plate (Corning #3599), with 2,000 cells per well and 100 μL of culture mediumper well. 500 nL of compound was added to the 96-well plate. 3) The 96-well plate was incubated in a 37° C., 5% CO2 incubator for 72 hours. After three days, the 96-well plate was taken from the incubator, 100 μL of 8% paraformaldehyde solution was added to each well, and the plate was placed at room temperature for 15 min. After 15 min, the liquid in the plate was shaken out and the plate was washed three times with phosphate buffer (1*PBS). The liquid in the plate was shaken out and 200 μL of membrane-breaking buffer (0.1% (v/v) Tween-20 in PBS) was added and the plate was incubated on a shaker for 30 min. After half an hour, the liquid in the plate was shaken out, and blocking buffer was added and the plate was incubated for two hours at room temperature with shaking. After that, the liquid in the plate was shaken off, and the blocking solution containing primary antibody (MMA primary antibody, CST #8711S, 1:1000 v/v) was added to the 96-well plate and the plate was incubated at 4° C. overnight with shaking. The next day, the plate was washed three times with washing solution (0.05% (v/v) Tween-20 in PBS), and a blocking solution containing secondary antibody (goat anti-rabbit IgG (H+L) Invitrogen #31460, 1:10,000 v/v) was added and the plate was incubated for two hours at room temperature. Afterwards, the 96-well plate was washed four times with washing solution. The TMB mixture was added to the 96-well plate and then the plate was incubated for 15 minutes at room temperature with shaking. After that, the reaction terminating solution was added, and the value was read at OD450 nm using an microplate reader. The plate was washed three times with washing solution, and 50 μL of janusgreen staining solution was added, and the plate was incubated for 15 minutes at room temperature with shaking. The reaction was washed ten times with water until no color residue was left. 200 μL of 0.5 M hydrochloric acid solution was added to each well and the plate was incubated for 10 min at room temperature. The value was read at OD595 nm using Flexstation.
Firstly, the ratio OD450/OD595 was calculated for each well
Each plate had six DMSO negative control groups (ZPE) and six 10 μM positive control groups (HPE), and the average of the control group ratios was used to determine the percentage of activation for each test well. The compounds to be tested were triple diluted with DMSO for a total of 8 concentration points with a starting concentration of 5 μM. The equation for calculating the activation percentage of each test well was: […]

Assay [4] relates to MV-4-11 cells. Kind of assay: MV-4-11 cell proliferation inhibition assay. The assay is classed as cell-based. The settings on record: Homo sapiens, MV4-11, 144 h; six-day assay, CellTiter-Glo. As to the method: • A. Purpose: to determine the effects of compounds on Toledo cells through a six-day cell proliferation assay. • B. Reagents and materials: • 1. Cell culture medium: RPMI 1640+10% FBS • 2. 384-well cell culture plate (Corning, item #3764) • 3. 0.4% Taipan Blue Staining Solution (Thermo Fisher, item #T10282) • 4. cell counting plate (Thermo Fisher, item #C10228) • 5. 50 ml reagent reservoir (Corning, item #4870) • 6. 50 ml conical sterile polypropylene centrifuge tube (Thermo Fisher, item #339653) • 7. Automatic cell counter (Thermo Fisher, item #AMQAX1000) • 8. CellTiter-Glo Luminescent Cell Viability Detection Reagent (Promega, item #G7572) • 9. SpectraMax i3x Multi-Mode Enzyme Labeling Instrument (Megaman Molecular Instruments, item #5024062) • C. Experimental method • 1. Resuspending the cells with a pipette. • 2. 0.4% Taipan blue staining solution and Toledo cells were mixed in equal proportion, and the cells were counted using an automatic cell counter. • 3. Toledo cells were diluted to a final concentration of 2000 cells per well and transferred to a 50 ml reagent reservoir. • 4. Diluted Toledo cells were added to a 384-well cell culture plate, 40 ul per well. • 5. The cells were shortly centrifuged and settled. • 6. The cells were incubated in a 37° C., 5% CO2 cell culture incubator. • 7. The substrate in the CellTiter-Glo Luminescent Cell Viability Detection Reagent was mixed with the solution. • 8. After six days, the 384-well cell culture plate was taken from the incubator and 20 ul of configured CellTiter-Glo reagent was added to each well. • 9. 384-well cell culture platewasmixed in an orbital shaker for 30 minutes. • 10. Signal of luminescence was detected with a SpectraMax i3x multi-mode enzyme labeling instrument.
Similar to the Toledo cell proliferation inhibition assay method, the difference was that MV-4-11 cells were used and the cell culture medium was IMDM+10% FBS; in step 3 of the assay method 250 cells per well was used instead;

Sequence of PRMT1 (Q99873 whole entry): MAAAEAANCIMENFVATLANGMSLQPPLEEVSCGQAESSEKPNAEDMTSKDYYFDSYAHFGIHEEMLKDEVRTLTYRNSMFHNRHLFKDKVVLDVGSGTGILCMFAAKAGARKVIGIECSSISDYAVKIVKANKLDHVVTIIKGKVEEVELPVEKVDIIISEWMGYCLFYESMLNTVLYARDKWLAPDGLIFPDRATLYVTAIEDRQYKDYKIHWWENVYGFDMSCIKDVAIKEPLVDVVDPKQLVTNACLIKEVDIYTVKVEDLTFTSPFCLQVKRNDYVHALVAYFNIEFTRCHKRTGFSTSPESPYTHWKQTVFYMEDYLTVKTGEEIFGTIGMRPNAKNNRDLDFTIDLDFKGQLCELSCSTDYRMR

Broadly, the IC50 is the concentration at which inhibition is half-maximal. Higher therefore signals lower potency. Consider `CNCCN(C)Cc1ccc(-c2cn[nH]c2)cc1C1CCN(c2cccc(C)c2)CC1` [P153], for which the IC50 in assay [1] is under 0.05 µM; in assay [2], under 1 µM. For the same compound, the EC30 in assay [3] is under 0.25 µM.
Take `CNCCN(C)Cc1ncccc1[C@H]1CC[C@]2(CC1)COC(C)(C)C2` [P157]: the IC50 in assay [1] is under 0.05 µM; in assay [2] it was under 1 µM. For the same compound, the EC30 in assay [3] was 0.25 to 2.5 µM.
Turning to `CNCCN(C)Cc1ncccc1[C@H]1CC[C@@]2(CC1)COC(C)(C)C2` [P158], the IC50 is under 0.05 µM in assay [1] and under 1 µM in assay [2]. The EC30 in assay [3] was under 0.25 µM.
In the case of `CNCCN(C)Cc1ncccc1N1CCC(COc2ccccc2)CC1` [P165], the half-maximal inhibitory concentration (IC50) was under 0.05 µM in assay [1] and under 1 µM in assay [2]. In assay [3], the EC30 lay in the range of 0.25 to 2.5 µM.
Taken in the same sequence, the figures for `CNCCN(C)Cc1ccc2[nH]ncc2c1C1CCc2cc(F)c(F)cc2CC1` [P167, N1-((4-(2,3-difluoro-6,7,8,9-tetrahydro-5H-benzo[7]cyclopenten-7-yl)-1H-indazol-5-yl)methyl)-N1,N2-dimethylethane-1,2-diamine] were under 0.05 µM, under 1 µM and under 0.25 µM.
In the case of `CNCCN(C)Cc1ncccc1C1CCN(c2ccccc2OC)CC1` [P170], the IC50 is under 0.05 µM in assay [1] and under 1 µM in assay [2]. Besides, the EC30 in assay [3] was in the range of 0.25 to 2.5 µM.
Taken in the same sequence, the figures for `CNCCN(C)Cc1ncccc1N1CCC(Oc2cccc(C)c2)CC1` [P171] were under 0.05 µM, under 1 µM and 0.25 to 2.5 µM.
Consider `CNCCN(C)Cc1ncccc1N1CCC(Oc2cccc(F)c2)CC1` [P179], for which the 50% inhibitory concentration (IC50) in assay [1] is under 0.05 µM; in assay [2] it was under 1 µM. In assay [3], the EC30 fell in the range of 0.25 to 2.5 µM.
Taken in the same sequence, the figures for `CCOCC1(Oc2cccc(C(F)(F)F)c2)CCN(c2cccnc2CN(C)CCNC)CC1` [P184] were 0.05 to 0.5 µM, under 1 µM and over 2.5 µM.
For `CNCCN(C)Cc1ncccc1N1CCC(Oc2ccccc2)CC1` [P185], the results for the IC50 in assay [1] and in assay [2] were under 0.05 µM and under 1 µM, respectively. Besides, the EC30 in assay [3] was in the range of 0.25 to 2.5 µM.
As for `CNCCN(C)Cc1ncccc1N1CCc2ccc(OC)cc2CC1` [P186], the IC50 is under 0.05 µM in assay [1] and under 1 µM in assay [2]. Besides, in assay [3], the EC30 is 0.25 to 2.5 µM.
With `CNCCN(C)Cc1ncccc1C1CCN(c2ccc(C#N)c(C)c2)CC1` [P187], the figures for the IC50 in assay [1] and in assay [2] were under 0.05 µM and under 1 µM, respectively. In addition, in assay [3], the EC30 is under 0.25 µM.
Turning to `CNCCN(C)Cc1ccc(N)nc1C1CCc2cc(F)c(F)cc2CC1` [P198], the IC50 in assay [1] was under 0.05 µM; in assay [2], under 1 µM. Besides, the EC30 in assay [3] is under 0.25 µM.
As for `CNCCN(C)Cc1ncccc1C1CCN(c2ccc(C#N)cc2)CC1` [P202], the concentration for half-maximal inhibition (IC50) was under 0.05 µM in assay [1] and under 1 µM in assay [2]. Also, in assay [3], the EC30 was 0.25 to 2.5 µM.
On to `CCOCC1(COCC)CCC(c2cnccc2CN(C)CCNC)CC1` [P206], for which the figures for the IC50 in assay [1] and in assay [2] were 0.05 to 0.5 µM and 1 to 5 µM, respectively. Moreover, in assay [3], the EC30 is 0.25 to 2.5 µM.
As for `CCOCC1(COCC)CCC(c2ncccc2CN(C)CCNC)CC1` [P208], the IC50 in assay [1] is under 0.05 µM; in assay [2] it was under 1 µM. Further, in assay [3], the EC30 lay within 0.25 to 2.5 µM.
For `CNCCN(C)Cc1ncccc1N1CCc2ccc(C#N)cc2CC1` [P225], the IC50 in assay [1] is under 0.05 µM; in assay [2], under 1 µM. Besides, the EC30 in assay [3] is under 0.25 µM.
For the compound `CNCCN(C)Cc1ccc(N)nc1C1CCN(c2cccc(C)c2)CC1` [P226, N^1-((6-amino-2-(1-(m-tolyl)piperidin-4-yl)pyridin-3-yl)methyl)-N^1,N^2-dimethylethane-1,2-diamine], the IC50 in assay [1] was under 0.05 µM; in assay [2], under 1 µM. Also, the EC30 in assay [3] was under 0.25 µM.
Take `CNCCN(C)Cc1ncccc1C1CCN(c2nc(N(C)C)nc3ccccc23)CC1` [P240]: the IC50 in assay [1] was under 0.05 µM; in assay [2], under 1 µM. Also, the EC30 in assay [3] was 0.25 to 2.5 µM.
Taken in the same sequence, the figures for `CNCCN(C)Cc1ncccc1N1CCc2ccc(N)cc2CC1` [P243] were under 0.05 µM, under 1 µM and 0.25 to 2.5 µM.
`CNCCN(C)Cc1ncccc1C1CCN(c2ncc3ccccc3n2)CC1` [P250]: the values for the IC50 in assay [1] and in assay [2] were under 0.05 µM and under 1 µM, respectively. Besides, the EC30 in assay [3] fell in the range of 0.25 to 2.5 µM.
On the same counts, the results for `CNCCN(C)Cc1ncccc1C1CCN(c2ccnc(N3CCCC3)n2)CC1` [P251] are under 0.05 µM, under 1 µM and 0.25 to 2.5 µM.
Regarding `CNCCN(C)Cc1ncccc1C1CCN(c2nccc(N3CCCC3)n2)CC1` [P252], the IC50 is under 0.05 µM in assay [1] and under 1 µM in assay [2]. The EC30 in assay [3] was in the range of 0.25 to 2.5 µM.
As for `CCOCC1(COCC)CCC(c2cc3c(cc2CN(C)CCNC)CNC3=O)CC1` [P258], the IC50 is under 0.05 µM in assay [1] and under 1 µM in assay [2]. For the same compound, the EC30 in assay [3] was under 0.25 µM.
For the compound `CNCCN(C)Cc1ccc2[nH]c(=O)[nH]c2c1C1CCN(c2cccc(C)c2)CC1` [P261], in assay [4], the IC50 is under 1 µM.
Turning to `CNCCN(C)Cc1ncccc1N1CCc2nc(SC)nc(C)c2CC1` [P323], the IC50 in assay [1] is under 0.05 µM; in assay [2] it was under 1 µM. Further, the EC30 in assay [3] was over 2.5 µM.
For the compound `CNCCN(C)Cc1cc(F)ccc1C1CCN(S(=O)(=O)c2ccccc2[N+](=O)[O-])CC1` [P325], the results for the IC50 in assay [1] and in assay [2] were under 0.05 µM and under 1 µM, respectively. The EC30 in assay [3] was in the range of 0.25 to 2.5 µM.
Consider `CNCCN(C)Cc1ccc(NCCNCC(=O)NC)nc1C1CCN(c2cccc(C)c2)CC1` [P400], for which the IC50 in assay [4] was under 1 µM.
With `CNCCN(C)Cc1cc2nc(N)[nH]c2cc1C1CCN(c2cccc(C)c2)CC1` [P408], the IC50 in assay [4] is at least 5 µM.
As to `CNCCN(C)Cc1ccc2c(c1C1CCN(c3cccc(C)c3)CC1)CC(C)(C)C(=O)N2` [P410], in assay [4], the IC50 is under 1 µM.
Same read-out and setting: the same measure for `CNCCN(C)Cc1ncc2[nH]c(=O)[nH]c2c1C1CCN(c2cccc(C)c2)CC1` [P413]: under 1 µM; for `CNCCN(C)Cc1ncc2[nH]c(N3CCOCC3)nc2c1C1CCN(c2cccc(C)c2)CC1` [P414]: under 1 µM.
Regarding `CNCCN(C)Cc1ncc2[nH]c(C)nc2c1C1CCN(c2cccc(C)c2)CC1` [P415], in assay [4], the IC50 is under 1 µM.
In the case of `CNCCN(C)Cc1ccc2[nH]c(C(F)(F)F)nc2c1C1CCN(c2cccc(C)c2)CC1` [P416], the IC50 in assay [4] was under 1 µM.
For `CNCCN(C)Cc1ccc2[nH]c(-c3cnc(C)nc3)nc2c1C1CCN(c2cccc(C)c2)CC1` [P418], the IC50 in assay [4] was under 1 µM.
The compound `CCOCC1(COCC)CCC(c2c(CN(C)CCNC)ccc3[nH]c(N4CCOCC4)nc23)CC1` [P419] showed an IC50 in assay [4] of under 1 µM.
